Results on two molecules are retold here after PMC4740973 (Bioconjugate chemistry, 2015).

Like-named read-outs stand apart in the source and are kept apart here.

For data set [1] the following is noted: cited from earlier work.
A further data set concerns the target MMP-9 (Mus musculus, UniProt P41245). Nature of the data set: Peptide cleavage by recombinant MMP-9. Type of data set: biochemical. The conditions noted are these: prinomastat added to prodrug with MMP-9, similar conditions (Figure S1).

Sequence of MMP-9 (P41245 108-730): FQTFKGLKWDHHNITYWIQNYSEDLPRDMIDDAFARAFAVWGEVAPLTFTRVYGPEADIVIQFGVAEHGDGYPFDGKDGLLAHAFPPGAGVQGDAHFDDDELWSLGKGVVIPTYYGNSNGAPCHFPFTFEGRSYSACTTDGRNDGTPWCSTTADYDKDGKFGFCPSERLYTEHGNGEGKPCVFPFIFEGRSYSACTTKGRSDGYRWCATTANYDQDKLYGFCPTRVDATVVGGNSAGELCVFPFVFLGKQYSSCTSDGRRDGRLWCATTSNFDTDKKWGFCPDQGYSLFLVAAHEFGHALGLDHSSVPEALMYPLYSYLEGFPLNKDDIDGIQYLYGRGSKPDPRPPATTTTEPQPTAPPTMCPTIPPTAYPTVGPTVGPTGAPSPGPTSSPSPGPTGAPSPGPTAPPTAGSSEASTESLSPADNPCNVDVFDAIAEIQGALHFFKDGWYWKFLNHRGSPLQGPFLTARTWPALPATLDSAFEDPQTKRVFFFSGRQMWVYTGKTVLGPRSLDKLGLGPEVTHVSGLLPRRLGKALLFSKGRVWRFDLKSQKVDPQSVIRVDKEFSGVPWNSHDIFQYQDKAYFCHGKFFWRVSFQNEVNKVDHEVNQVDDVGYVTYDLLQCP

Turning to `CC[C@H](C)[C@H](NC(=O)CN)C(=O)NCC(=O)N[C@@H](C)C(=O)N[C@H](C(=O)N[C@@H](CC(C)C)C(=O)N[C@@H](CCCCN)C(=O)N[C@H](C(=O)N[C@@H](CC(C)C)C(=O)N[C@H](C(=O)N[C@H](C(=O)NCC(=O)N[C@@H](CC(C)C)C(=O)N1CCC[C@H]1C(=O)N[C@@H](C)C(=O)N[C@@H](CC(C)C)C(=O)N[C@H](C(=O)N[C@@H](CO)C(=O)N[C@@H](Cc1c[nH]c2ccccc12)C(=O)N[C@H](C(=O)N[C@@H](CCCCN)C(=O)N[C@@H](CCCNC(=N)N)C(=O)N[C@@H](CCCCN)C(=O)N[C@@H](CCCNC(=N)N)C(=O)N[C@@H](CCC(N)=O)C(=O)N[C@@H](CCC(N)=O)C(N)=O)[C@@H](C)CC)[C@@H](C)CC)[C@@H](C)O)[C@@H](C)O)C(C)C)C(C)C` [melittin, Melittin], the results for the plasma half-life in data set [1] (free melittin) and in data set [1] (melittin incorporated onto perfluorocarbon nanoparticles) were 24 min and “over 300 minutes”, respectively. In the case of `CC1(C)SCCN(S(=O)(=O)c2ccc(Oc3ccncc3)cc2)[C@H]1C(=O)NO` [prinomastat], the “effect on prodrug cleavage by MMP-9” value at MMP-9 was “prevented cleavage of the prodrug”.
